Results published in publication PMC6943742, “Peptide/Peptoid Hybrid Oligomers: The Influence of Hydrophobicity and Relative Side-Chain Length on Antibacterial Activity and Cell Selectivity” (Molecules, 2019).
Values after ≈ are worked out from the molar mass of the structure shown. Where two headings read alike, the source gives them in different places. Non-standard residues stand in square brackets, D forms with d. Residues, ends and D or L forms follow the SMILES beside them. N(5-aminopentyl)Gly = NCCCCCNCC(=O)O; Gly(NCH2CH2Ph) = O=C(O)CNCCc1ccccc1; hPhe = N[C@@H](CCc1ccccc1)C(=O)O; hLys = NCCCCC[C@H](N)C(=O)O; Nphe = O=C(O)CNCc1ccccc1; Orn = NCCC[C@H](N)C(=O)O; Dab = NCC[C@H](N)C(=O)O

Key:
[1] = in vitro; assay type: cell-based; settings: human, Hemolytic Activity (percentage hemolysis)
Method: The lysis of human red blood cells was measured as previously described, with modifications. In brief, freshly drawn human red blood cells (hRBCs) were washed three times with PBS buffer and centrifuged two times for 5 min at 2500 rpm. A two-fold serial dilution of peptidomimetics in PBS buffer was added to each well in a sterile polypropylene V-bottom 96-well plate to the total volume of 75 μL. A 0.5% v/v hRBC suspension (75 μL in PBS buffer) was added to each well to reach a final volume of 150 μL in each well. The plate was incubated (37 °C) for 60 min, and then the cells were subsequently pelleted by centrifugation at 1000 rpm for 5 min. The supernatants (50 μL) were transferred to clear, flat-bottomed plastic 96-well plates. The concentration of hemoglobin was detected by measuring the OD at 405 nm. The OD of cells incubated with 0.1% SDS defined 100% hemolysis, while the OD of cells incubated with PBS buffer defined 0% hemolysis. The concentrations tested were 200, 400, and 800 μg/mL (only average values for the highest concentration are stated in Table 2).

[2] = test system: HepG2 cell line ATCC HB-8065; test: in vitro; assay type: cell-based; settings: 48 h
Method: Side effects affecting cell viability were estimated on the HepG2 cell line ATCC HB-8065. In brief, HepG2 cells were seeded in flat-bottomed 96-well plates at a concentration of 5000 cells per well. At 80−90% confluency, the cells were incubated for 24 h in a humidified incubator (5% CO2, 37 °C). The medium was removed, and the cells were incubated for 48 h in a humidified incubator (5% CO2, 37 °C) with compounds in two-fold serial dilutions. An MTT assay was then performed as previously described. In brief, after incubation with the test compounds, the culture medium was removed and fresh medium with 0.2 mg/mL MTT was added in each well of the plate. After incubation (3 h, 37 °C, 5% CO2), the medium with MTT was removed, and 200 μL dimethyl sulfoxide were added at once to each sample. Absorbance of MTT was measured using spectrophotometer TECAN Infinite M1000 at 540 nm. The relative viability was calculated by using the formula: ODtreated cells × 100/ODcontrol cells. The IC50 values are calculated by using the program Graph Pad Prism® 5.0. For all compounds, the test range was 10–1280 μg/mL.

[3] = Relative hydrophobicity by RP-HPLC (% MeCN at peak elution); assay type: physicochemical; settings: RP-HPLC gradient 0 → 60% B during 10 min; % MeCN at peak elution calculated from retention time
Method: The relative hydrophobicity of each peptidomimetic was measured by reverse-phase high-performance liquid chromatography (RP-HPLC). Typically, the RP-HPLC retention time (or percentage acetonitrile at peak elution) constitutes the preferred measure that allows for comparison of relative hydrophobicity, while log P values of polycationic peptides or peptidomimetics normally are considered unsuitable due to the extreme hydrophilic nature of such compounds [11, 45, 57, 58, 59, 60]. […] For both subgroups III (with cationic amino acid residues and the peptoid analogue of Phe, NPhe, i.e., 9–12) and IV (with cationic amino acid residues and the peptoid analogue of hPhe, NhPhe, i.e., 13–16) only minor differences in hydrophobicity were seen. These observations infer that, when the cationic residues are of a peptoid nature, the side-chain length of these has a […] influence on the hydrophobicity. […] Thus, introduction of additional six methylene groups results, as expected, in increased hydrophobicity.
Starting materials and solvents were purchased from commercial suppliers (Iris Biotech, Markredwitz, Germany; Fluorochem, Hadfield, United Kingdom; and Merck, Darmstadt, Germany) and used without further purification. Water used for analytical and preparative high-performance liquid chromatography (HPLC) was filtered through a 0.22-μm Millipore membrane filter. Purity and retention time of each peptidomimetic were determined by analytical UHPLC by using a Phenomenex Luna C18(2) HST column (100 mm × 3 mm; particle size: 2.5 μm; pore size: 100 Å) on a Shimadzu Prominence and Shimadzu Nexera system using an aqueous acetonitrile (MeCN) gradient with 0.1% trifluoroacetic acid (TFA) added (eluent A: 5:95 MeCN–H2O + 0.1% TFA, eluent B: 95:5 MeCN–H2O + 0.1% TFA); a flow rate of 0.5 mL/min was used. For elution of peptidomimetics, a linear gradient of 0% to 60% B during 10 min was used with UV detection at λ = 220 nm. […] For each peptidomimetic, the percentage of MeCN at peak elution was calculated from the retention time by using the following formula:(1) %MeCN = 0.95 (0.6Rt/10 min.) + 0.05 (1−0.6Rt/10 min.).

[4] = test system: E. faecalis ATCC 29212; assay type: cell-based
Method: (§1) MIC values were evaluated by using the modified Hancock lab protocol in non-binding polystyrene microtitre plates, with bacterial suspensions of ∼2 × 10^5 CFU/mL in Mueller-Hinton broth (Difco, Sparks MD, USA), with Mg^2+ and Ca^2+ concentrations of 4 mg/L each. The compounds were dissolved in H2O and diluted in 0.01% acetic acid, 0.2% BSA (final concentration). Aliquots of 11 µL of 10 × test compounds were then transferred to the appropriate wells with bacterial suspensions. For preparation and transfer of the solutions of the compounds, low-binding sterile tubes and tips (Axygen, Union City CA, USA) were used. After 20 h incubation of covered plates at 35 °C (±2 °C) with circular shaking at 220 rpm, the MICs were read. The antibacterial activity of peptidomimetics was tested against E. coli ATCC 25922, K. pneumoniae ATCC 13883, P. aeruginosa ATCC 27853, P. aeruginosa PAO1, A. baumannii ATCC 19606, S. aureus ATCC 29213, and E. faecalis ATCC 29212.

[5] = test system: P. aeruginosa ATCC 27853; assay type: cell-based
Method: as §1

[6] = test system: S. aureus ATCC 29213; assay type: cell-based
Method: as §1

[7] = test system: P. aeruginosa PAO1; assay type: cell-based
Method: as §1

[8] = test system: E. coli ATCC 25922; assay type: cell-based
Method: as §1

[9] = test system: K. pneumoniae ATCC 13883; assay type: cell-based
Method: as §1

[10] = test system: A. baumannii ATCC 19606; assay type: cell-based
Method: as §1

Compound | hemolysis at 60 min, 800 µg/mL [1] | IC50 for inhibiting growth of HepG2 cells [2] | Hydrophobicity (% MeCN at elution) [3] | MIC ([4]; ATCC 29212, 20 h) | MIC ([5]; ATCC 27853, 20 h) | MIC ([6]; ATCC 29213, 20 h) | MIC ([7]; PAO1, 20 h) | MIC ([8]; ATCC 25922, 20 h) | MIC ([9]; ATCC 13883, 20 h) | MIC ([10]; ATCC 19606, 20 h) | MIC ([4]; E. faecalis ATCC 29212, Gram-positive, 20 h, Mueller-Hinton broth) | MIC ([5]; P. aeruginosa ATCC 27853, Gram-negative, 20 h, Mueller-Hinton broth) | MIC ([6]; S. aureus ATCC 29213, Gram-positive, 20 h, Mueller-Hinton broth) | MIC ([7]; P. aeruginosa PAO1, Gram-negative, 20 h, Mueller-Hinton broth) | MIC ([8]; E. coli ATCC 25922, Gram-negative, 20 h, Mueller-Hinton broth) | MIC ([10]; A. baumannii ATCC 19606, Gram-negative, 20 h, Mueller-Hinton broth) | MIC ([9]; K. pneumoniae ATCC 13883, Gram-negative, 20 h, Mueller-Hinton broth)
NCCCCCNCC(=O)N[C@@H](CCc1ccccc1)C(=O)N(CCCCCN)CC(=O)N[C@@H](CCc1ccccc1)C(=O)N(CCCCCN)CC(=O)N[C@@H](CCc1ccccc1)C(=O)N(CCCCCN)CC(=O)N[C@@H](CCc1ccccc1)C(=O)N(CCCCCN)CC(=O)N[C@@H](CCc1ccccc1)C(=O)N(CCCCCN)CC(=O)N[C@@H](CCc1ccccc1)C(N)=O [Peptidomimetic 8] (H-[N(5-aminopentyl)Gly][hPhe][N(5-aminopentyl)Gly][hPhe][N(5-aminopentyl)Gly][hPhe][N(5-aminopentyl)Gly][hPhe][N(5-aminopentyl)Gly][hPhe][N(5-aminopentyl)Gly][hPhe]-NH2) | 9% | 266 µg/mL | 40.9% | >64 µg/mL | 64 µg/mL (≈ 34.8 µM) | >64 µg/mL | 64 µg/mL (≈ 34.8 µM) | 2 µg/mL (≈ 1.09 µM) | 64 µg/mL (≈ 34.8 µM) | – | – | – | – | – | – | – | –
NCC[C@H](NC(=O)CN(Cc1ccccc1)C(=O)[C@H](CCN)NC(=O)CN(Cc1ccccc1)C(=O)[C@H](CCN)NC(=O)CN(Cc1ccccc1)C(=O)[C@H](CCN)NC(=O)CN(Cc1ccccc1)C(=O)[C@H](CCN)NC(=O)CN(Cc1ccccc1)C(=O)[C@@H](N)CCN)C(=O)N(CC(N)=O)Cc1ccccc1 [Peptidomimetic 9] (H-[Dab][Nphe][Dab][Nphe][Dab][Nphe][Dab][Nphe][Dab][Nphe][Dab][Nphe]-NH2) | 79% | 326 µg/mL | – | >64 µg/mL | 1 µg/mL (≈ 0.666 µM) | >64 µg/mL | 2 µg/mL (≈ 1.33 µM) | 2 to 4 µg/mL | 32 to 64 µg/mL | – | – | – | – | – | – | – | –
NCCC[C@H](NC(=O)CN(Cc1ccccc1)C(=O)[C@H](CCCN)NC(=O)CN(Cc1ccccc1)C(=O)[C@H](CCCN)NC(=O)CN(Cc1ccccc1)C(=O)[C@H](CCCN)NC(=O)CN(Cc1ccccc1)C(=O)[C@H](CCCN)NC(=O)CN(Cc1ccccc1)C(=O)[C@@H](N)CCCN)C(=O)N(CC(N)=O)Cc1ccccc1 [Peptidomimetic 10] (H-[Orn][Nphe][Orn][Nphe][Orn][Nphe][Orn][Nphe][Orn][Nphe][Orn][Nphe]-NH2) | 10% | 923 µg/mL | – | >64 µg/mL | 2 to 4 µg/mL | >64 µg/mL | 4 to 8 µg/mL | 4 to 8 µg/mL | >64 µg/mL | – | – | – | – | – | – | – | –
NCC[C@H](NC(=O)CN(CCc1ccccc1)C(=O)[C@H](CCN)NC(=O)CN(CCc1ccccc1)C(=O)[C@H](CCN)NC(=O)CN(CCc1ccccc1)C(=O)[C@H](CCN)NC(=O)CN(CCc1ccccc1)C(=O)[C@H](CCN)NC(=O)CN(CCc1ccccc1)C(=O)[C@@H](N)CCN)C(=O)N(CCc1ccccc1)CC(N)=O [Peptidomimetic 13] (H-[Dab][Gly(NCH2CH2Ph)][Dab][Gly(NCH2CH2Ph)][Dab][Gly(NCH2CH2Ph)][Dab][Gly(NCH2CH2Ph)][Dab][Gly(NCH2CH2Ph)][Dab][Gly(NCH2CH2Ph)]-NH2) | 53% | 261 µg/mL | – | >64 µg/mL | 2 µg/mL (≈ 1.26 µM) | >64 µg/mL | 2 to 4 µg/mL | 4 µg/mL (≈ 2.52 µM) | 32 µg/mL (≈ 20.2 µM) | >64 µg/mL | – | – | – | – | – | – | –
NCCCCC[C@H](NC(=O)CN(CCc1ccccc1)C(=O)[C@H](CCCCCN)NC(=O)CN(CCc1ccccc1)C(=O)[C@H](CCCCCN)NC(=O)CN(CCc1ccccc1)C(=O)[C@H](CCCCCN)NC(=O)CN(CCc1ccccc1)C(=O)[C@H](CCCCCN)NC(=O)CN(CCc1ccccc1)C(=O)[C@@H](N)CCCCCN)C(=O)N(CCc1ccccc1)CC(N)=O [Peptidomimetic 16] (H-[hLys][Gly(NCH2CH2Ph)][hLys][Gly(NCH2CH2Ph)][hLys][Gly(NCH2CH2Ph)][hLys][Gly(NCH2CH2Ph)][hLys][Gly(NCH2CH2Ph)][hLys][Gly(NCH2CH2Ph)]-NH2) | 9% | 410 µg/mL | 41.1% | >64 µg/mL | 16 µg/mL (≈ 8.71 µM) | >64 µg/mL | 32 µg/mL (≈ 17.4 µM) | 4 µg/mL (≈ 2.18 µM) | >64 µg/mL | – | – | – | – | – | – | – | –
Colistin [reference compound] | – | – | – | – | – | – | – | – | – | – | >64 µg/mL | 0.125 to 0.25 µg/mL | >64 µg/mL | 0.5 µg/mL | 0.125 to 0.25 µg/mL | 0.5 µg/mL | 0.25 µg/mL
